Assay results: US20120053119A1, “THERAPEUTIC METHOD FOR INCREASING PANCREATIC BETA CELL MASS” (priority 2009, published 2012)

Assays:
Type in all cases: cell-based
alpha-TC-1 cells = assay: BrdU incorporation cell proliferation assay in alpha-TC-1 cells; conditions: serum starved alpha-TC-1 cells, SDF-1 10 nM, 20 hrs
Procedure: FIG. 16. BrdU incorporation cell proliferation assay. Serum starved alpha-TC-1 cells were treated with either PBS (Control) or SDF-1 (10 nM) for 20 hrs, and their proliferation rate was examined by a BrdU incorporation assay. Data represent means±S.D. of three experiments. Statistical significance is depicted as * (p<0.05) when compared with control values (left bar).

INS-1 cells [1] = assay: Cell proliferation assay, BrdU incorporation; conditions: SDF-1 10 nM overnight
Procedure: FIG. 6. Inhibition of apoptosis by SDF-1 in INS-1 and MIN-6 cells is reversed by knock-down of betacatenin. A. Western blot analysis of extracts from MIN6 cells that were mock treated, thapsigargin-treated (1 μM) and/or siRNA transfected (0.25 mg/ml), by using anti-serum against cleaved caspase-3 (upper panel), anti-serum against cleaved PARP (middle panel) and actin antibody (lower panel) as a loading control. B. Caspase-3 activity (fluorescence/mg proteinx105) of INS-1 or MIN6 cells mock treated, thapsigargin-treated (1 μM) and/or siRNA transfected (0.25 mg/ml). Results are presented as mean±SD for n=3 independent experiments, All values are relative to the first (leftmost) bar. Statistical significance is depicted as * (p<0.05) when compared with control values (leftmost bar) and # (<0.05) when compared with […] thapsigargin treatment. C. Representative images are shown for TUNEL staining of INS-1 cells of n=3 independent experiments. Quantification of apoptotic cells is expressed as percent apoptotic cells relative to the total cells counted (lower left panel). […]
Cell Proliferation Assay Proliferation of INS-1 cells was determined by incorporation of BrdU into newly synthesized DNA of proliferating cells. […] BrdU staining was measured by the DELFIA cell proliferation kit (Perkin Elmer).

PDX-1 = PDX-1 mRNA by RT-PCR in alphaTC-1 cells; conditions: SDF-1 10 nM, by 12 hours
Procedure: FIG. 22. SDF-1 induces the expression of PDX-1 in alphaTC-1 cells. PDX-1 mRNA is induced by 12 hours after the addition of SDF-1 (10 nM), determined by RT-PCR. M=marker lane.

Wnt target genes = assay: Wnt signaling pathway-focused microarray (SuperArray) of INS-1 cells treated with SDF-1; conditions: 4 hrs
Procedure: FIG. 8. Wnt signaling focused array analysis. INS-1 cells were stimulated by SDF-1 (10 nM) for 4 hr. Total RNA was isolated and biotin-labeled complementary RNAs were generated. The Wnt signaling pathway-focused microarray filters (SuperArray Bioscience) were hybridzed with these biotin-labeled targets at 60 degree overnight. The filters were washed and subsequently incubated with alkaline phosphatase-conjugated streptavidin and CDP-substrate. The chemiluminescent images were captured. For quantification, the spot intensity was measured and normalized to the value of the housekeeping gene GADPH. Shown is a representative image of the focused array.
(§1) Gene expression profiling on focused microarrays INS-1 cells were untreated or treated with 10 nM SDF-1 for 4 hrs. Total RNA was isolated and Biotin-labeled complimentary RNAs were generated using the TrueLabeling-AMP Linear RNA Amplification Kit (SuperArray Bioscience Corp.) The Wnt-signaling pathway-focused microarray filters (118 probes) (SuperArray Bioscience Corp.) were hybridized with these biotin-labeled targets (5 microg/array at 60 C overnight. The filters were washed and subsequently incubated with alkaline phosphatase-conjugated streptavidin and CDPStar substrate. The Chemiluminescent images were captured using Kodak Digital Station 440 (Perkin Elmer). For quantification, the spot intensity was measured and normalized to the value of the housekeeping gene GAPDH. Fold-changes in gene expression levels were determined by comparisons of hybridization densities of SDF-1 treated versus untreated INS-1 cells. Real time RT-PCR was carried out by using the SYBR® Green QPCR kit (Stratagene). Briefly, INS-1 cells were treated with 10 nM SDF-1 or PBS vehicle control for 4 h. Total RNA was reverse-transcribed to cDNA using Super-Script II reverse transcriptase (Invitrogen). Real-time PCR was performed to amplify cyclin D1 and beta-catenin.
The expression of transcripts in INS-1 cells in response to SDF-1 (10 nM, 4 hrs) was determined on focused arrays of genes expressed in the Wnt signaling pathway. […] This finding is consistent with the down-regulation of genes expressing components of the beta-catenin destruction box involved in the degradation of beta-catenin that occurs in the absence of active Wnt signaling; for example, axin, glycogen synthase kinase-3 (Gsk3) and casein kinase 1 (Csnk1). These findings are consistent with the mechanism of Wnt/Fz-induced signaling involving Galphai/o activation of disheveled (Dv1) and the inhibition of the destruction box enzymes GSK3 and Csnk1 that destabilize and degrade betacatenin.

[2] = tested on: GLP-1 receptor (GLP-1R) mRNA; assay: GLP-1R mRNA by RT-PCR in alphaTC-1 cells; conditions: SDF-1 10 nM, by 4 hrs
Procedure: FIG. 21. SDF-1 induces the expression of the GLP-1 receptor (GLP-1R) mRNA in alphaTC-1 cells. […] RNA levels were determined by RT-PCR.

INS-1 cells [3] = assay: Real time RT-PCR of beta-catenin and cyclin D1 mRNA in INS-1 cells; conditions: SDF-1 4 hr, relative to vehicle-treated control
Procedure: FIG. 9. […] Data are normalized by using the housekeeping gene GADPH as an internal control and represent means±S.D. of three independent experiments. Statistical significance is depicted as (p<0.01) when compared with control values.
as §1, with “Total RNA was reverse-transcribed to cDNA using Super-Script II reverse transcriptase (Invitrogen). Real-time PCR was performed to amplify cyclin D1 and beta-catenin.” left out

In the case of “SDF-1: small, secreted 70 amino acid peptide chemokine, SEQ ID NO: 1, ligand of CXCR4”, the “proliferation of alpha cells (BrdU incorporation)” value (alpha-TC-1 cells) is reported as “stimulates the proliferation”, the “effect on proliferation of INS-1 cells, BrdU incorporation” value (INS-1 cells [1]) is reported as “no detectable effects” and the “PDX-1 mRNA expression” value (PDX-1) is reported as “induced”. The “mRNA fold change by SDF-1” value (Wnt target genes; gene Axin1, SDF-1 10 nM) was −2.58 fold, the “mRNA fold change by SDF-1” value (Wnt target genes; gene Ccnd1 (Cyclin D1), SDF-1 10 nM) was 1.48 fold and the “mRNA fold change by SDF-1” value (Wnt target genes; gene Ccnd2 (Cyclin D2), SDF-1 10 nM) was −2.29 fold. The “mRNA fold change by SDF-1” value (Wnt target genes; gene Csnk2a1 (Casein kinase II, Alpha1), SDF-1 10 nM) was −1.42 fold, the “mRNA fold change by SDF-1” value (Wnt target genes; gene Csnk2b (Casein kinase 2, beta subunit), SDF-1 10 nM) was −3.03 fold and the “mRNA fold change by SDF-1” value (Wnt target genes; gene Ctbp1 (C-terminal binding protein 1), SDF-1 10 nM) was −2.32 fold. For the same substance, the “mRNA fold change by SDF-1” value (Wnt target genes; gene Ctnnb1 (Catenin (cadherin associated protein), beta 1), SDF-1 10 nM) was 1.99 fold, the “mRNA fold change by SDF-1” value (Wnt target genes; gene Cxxc4 (CXXC finger 4), SDF-1 10 nM) was −1.43 fold and the “mRNA fold change by SDF-1” value (Wnt target genes; gene Dvl1 (Dishevelled, dsh homolog 1), SDF-1 10 nM) was −1.92 fold. The “mRNA fold change by SDF-1” value (Wnt target genes; gene Fosl1 (Fos-like antigen 1), SDF-1 10 nM) was 1.72 fold, the “mRNA fold change by SDF-1” value (Wnt target genes; gene Foxn1 (Forkhead box N1), SDF-1 10 nM) was 1.66 fold and the “mRNA fold change by SDF-1” value (Wnt target genes; gene Fshb (Follicle stimulating hormone beta), SDF-1 10 nM) was 1.69 fold. The “mRNA fold change by SDF-1” value (Wnt target genes; gene Fzd2 (Frizzled homolog 2), SDF-1 10 nM) was 1.43 fold, the “mRNA fold change by SDF-1” value (Wnt target genes; gene Gsk3a (Glycogen synthase kinase 3 alpha), SDF-1 10 nM) was −1.67 fold and the “mRNA fold change by SDF-1” value (Wnt target genes; gene Gsk3b (Glycogen synthase kinase 3 beta), SDF-1 10 nM) was −1.51 fold. For the same substance, the “mRNA fold change by SDF-1” value (Wnt target genes; gene Lrp5_predicted (Low density lipoprotein receptor-related protein 5), SDF-1 10 nM) was 1.72 fold, the “mRNA fold change by SDF-1” value (Wnt target genes; gene Myc, SDF-1 10 nM) was −2.55 fold and the “mRNA fold change by SDF-1” value (Wnt target genes; gene Ppp2cb (Protein phosphatase 2, catalytic subunit, beta isoform), SDF-1 10 nM) was −2.12 fold. The “mRNA fold change by SDF-1” value (Wnt target genes; gene Ppp2r1b (Protein phosphatase 2, regulatory subunit A (PR 65), beta isoform), SDF-1 10 nM) was −1.71 fold, the “mRNA fold change by SDF-1” value (Wnt target genes; gene Rhoa (Ras homolog gene family, member A), SDF-1 10 nM) was −1.32 fold and the “mRNA fold change by SDF-1” value (Wnt target genes; gene Slc9a3r1 (Solute carrier family 9, isoform 3 regulator 1), SDF-1 10 nM) was 1.43 fold. For the same substance, the “mRNA fold change by SDF-1” value (Wnt target genes; gene Tcfe2a (Transcription factor E2a), SDF-1 10 nM) was 1.61 fold, the “mRNA fold change by SDF-1” value (Wnt target genes; gene Wif1 (Wnt inhibitory factor 1), SDF-1 10 nM) was −1.92 fold and the “mRNA fold change by SDF-1” value (Wnt target genes; gene Wnt7b (Wingless-related MMTV integration site 7B), SDF-1 10 nM) was 1.59 fold. For the same substance, the “GLP-1R mRNA expression” value [2] was “induces the expression of GLP-1R”, the “beta-catenin mRNA expression” value (INS-1 cells [3]) was 3 fold and the “cyclin D1 mRNA expression” value (INS-1 cells [3]) was 2 fold.
